Consider 82 compounds from the Kinase Knowledgebase extract (Sharma et al. 2016).

pIC50: −log10 of the molar value.

The test deals with PIK3CA (human) (UniProt P42336). The test is described as follows: Assessment of PIK3CA Kinase Activity.
Sequence of PIK3CA (human) (P42336 whole entry, looked up): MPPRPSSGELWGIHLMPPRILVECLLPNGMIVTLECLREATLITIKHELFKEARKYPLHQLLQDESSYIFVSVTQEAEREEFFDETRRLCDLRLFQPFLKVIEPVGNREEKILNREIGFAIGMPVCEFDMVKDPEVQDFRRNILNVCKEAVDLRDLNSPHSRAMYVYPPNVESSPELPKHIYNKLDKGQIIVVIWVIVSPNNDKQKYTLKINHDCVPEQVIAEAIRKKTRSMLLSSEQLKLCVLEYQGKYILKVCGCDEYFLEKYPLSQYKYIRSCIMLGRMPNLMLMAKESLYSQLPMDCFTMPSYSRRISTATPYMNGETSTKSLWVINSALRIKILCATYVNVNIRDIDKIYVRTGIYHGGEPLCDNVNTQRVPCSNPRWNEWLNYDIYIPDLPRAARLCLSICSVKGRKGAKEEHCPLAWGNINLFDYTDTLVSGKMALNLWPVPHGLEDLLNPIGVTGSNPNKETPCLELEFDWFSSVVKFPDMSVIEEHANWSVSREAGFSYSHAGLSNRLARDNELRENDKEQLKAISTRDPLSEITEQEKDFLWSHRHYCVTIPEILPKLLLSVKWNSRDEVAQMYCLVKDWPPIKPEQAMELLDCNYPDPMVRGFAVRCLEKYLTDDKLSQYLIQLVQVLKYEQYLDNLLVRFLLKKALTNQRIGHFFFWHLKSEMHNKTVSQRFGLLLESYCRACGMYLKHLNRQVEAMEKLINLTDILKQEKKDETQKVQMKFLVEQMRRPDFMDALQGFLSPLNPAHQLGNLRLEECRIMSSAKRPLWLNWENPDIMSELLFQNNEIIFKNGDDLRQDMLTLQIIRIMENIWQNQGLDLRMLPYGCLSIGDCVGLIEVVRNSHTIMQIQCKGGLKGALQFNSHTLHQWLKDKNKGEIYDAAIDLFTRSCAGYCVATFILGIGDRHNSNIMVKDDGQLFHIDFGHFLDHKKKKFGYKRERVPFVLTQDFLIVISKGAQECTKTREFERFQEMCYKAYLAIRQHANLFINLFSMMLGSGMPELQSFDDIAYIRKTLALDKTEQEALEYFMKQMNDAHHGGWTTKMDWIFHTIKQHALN
Consider `CN1CCC(n2ncnc2-c2nc3c(s2)CCOc2cc(-c4cnn(CCO)c4)ccc2-3)CC1`, for which the pIC50 – broadly, the IC50 on a negative log10 scale, so that one unit is a factor of ten – was over 6.00.

Consider `CC(C)n1ncnc1-c1nc2c(s1)CCOc1cc(C3CCN(CCS(=O)(=O)N(C)C)CC3)ccc1-2`, for which the negative logarithm of the IC50 (pIC50) was over 6.00.

`CC(O)C(=O)N1CC(n2cc(-c3ccc4c(c3)OCCc3sc(-c5ncnn5C(C)C)nc3-4)cn2)C1` (configuration not stated) had a pIC50 of over 6.00.

In turn, `CC(C)n1ncnc1-c1nc2c(s1)CCOc1ccc(-c3cccnc3F)cc1-2` gave a negative logarithm of the IC50 (pIC50) of over 6.00.

Turning to `CN(C[C@H]1Cc2ccccc2O1)C(=O)c1nc2c(s1)CCOc1cc(-c3cn[nH]c3)ccc1-2`, the pIC50 is over 6.00.

In turn, `CC(C)n1ncnc1-c1nc2c(s1)CCOc1cc(C3(O)CCNCC3)ccc1-2` showed a negative-log IC50 (pIC50) of over 6.00.

On to `CC(C)(O)Cn1cc(-c2ccc3c(c2)OCCc2sc(-c4ncnn4CCO)nc2-3)cn1`, for which the pIC50 was over 6.00.

In turn, `CC(=O)N(C)[C@@H]1CCN(C(=O)c2nc3c(s2)CCOc2cc(-c4cn[nH]c4)ccc2-3)C1` showed a pIC50 of over 6.00.

With `O=C(c1nc2c(s1)CCOc1cc(-c3cn[nH]c3)ccc1-2)N1CCC[C@@H](C(F)(F)F)C1`, the pIC50 was over 6.00.

`Cc1nc(-c2nc3c(s2)CCOc2cc(C4CN(CCCO)C4)ccc2-3)n(C(C)C)n1` gave a pIC50 of over 6.00.

With `Cc1nc(-c2nc3c(s2)CCOc2cc(C4COC4)ccc2-3)n(C(C)C)n1`, the pIC50 was over 6.00.

In turn, `COCCn1ccc(-c2ccc3c(c2)-c2nc(-c4ncnn4C(C)C)sc2CCO3)cc1=O` gave a negative logarithm of the IC50 (pIC50) of over 6.00.

In the case of `C[C@@H]1CN(c2ccc3c(n2)-c2sc(-c4ncnn4-c4ccc(F)cc4F)cc2CCO3)C[C@H](C)N1CCF`, the pIC50 is over 6.00.

`CC(C)CN(C)C(=O)c1nc2c(s1)CCOc1cc(-c3cn[nH]c3)ccc1-2` gave a pIC50 of over 6.00.

`O=C(NCCO)c1ccc2c(c1)OCCc1sc(-c3ncnn3CC(F)(F)F)nc1-2` gave a pIC50 of over 6.00.

Compound `CC(C)n1ncnc1-c1nc2c(s1)CCOc1cc(C3CN(CC(=O)NCC(C)(C)O)C3)ccc1-2` gave a pIC50 of over 6.00.

For `Cc1nc(-c2nc3c(s2)CCOc2cc(-c4cnn(C5CN(CCO)C5)c4)ccc2-3)n(C(C)C)n1`, the pIC50 is over 6.00.

The compound `Fc1ccc(-n2ncnc2-c2cc3c(s2)-c2nc(NCCc4ccccc4)ccc2OCC3)c(F)c1` had a pIC50 of over 6.00.

In turn, `CC(C)n1ncnc1-c1nc2c(s1)CCOc1cc(C3CN(C(=O)[C@@H](C)O)C3)ccc1-2` showed a pIC50 of over 6.00.

In the case of `CCN(CC)CCn1cc(-c2ccc3c(c2)OCCc2sc(-c4ncnn4CC(F)(F)F)nc2-3)cn1`, the pIC50 is over 6.00.

Turning to `O=C(NCC(F)F)c1ccc2c(c1)OCCc1sc(-c3ncnn3CC(F)(F)F)nc1-2`, the pIC50 was over 6.00.

Turning to `CC(C)Nc1ccc2c(n1)-c1sc(-c3ncnn3-c3ccc(F)cc3F)cc1CCO2`, the pIC50 was over 6.00.

`CC(C)n1ncnc1-c1nc2c(s1)CCOc1ccc(-c3cnn(S(=O)(=O)c4ccccc4)c3)cc1-2` gave a pIC50 of over 6.00.

On to `CS(=O)(=O)N1CC(Nc2ccc3c(n2)-c2sc(-c4ncnn4-c4ccc(F)cc4F)cc2CCO3)C1`, for which the pIC50 was over 6.00.

Regarding `O=C(c1nc2c(s1)CCOc1cc(-c3cn[nH]c3)ccc1-2)N1CCN(c2ncccn2)CC1`, the pIC50 is over 6.00.

Consider `Fc1ccc(-n2ncnc2-c2cc3c(s2)-c2nc(-c4ccc(N5CCOCC5)nc4)ccc2OCC3)c(F)c1`, for which the pIC50 is over 6.00.

`O=C(c1nc2c(s1)CCOc1cc(-c3cn[nH]c3)ccc1-2)N1CC[C@@H](O)C1` had a pIC50 of over 6.00.

Turning to `N#CC1CCN(C(=O)c2nc3c(s2)CCOc2cc(-c4cn[nH]c4)ccc2-3)CC1`, the pIC50 was over 6.00.

In turn, `CC(C)n1ncnc1-c1nc2c(s1)CCOc1cc(C3CN(C(=O)[C@H](C)O)C3)ccc1-2` showed a pIC50 of over 6.00.

Compound `CC(C)(O)Cn1cc(-c2ccc3c(c2)OCCc2sc(-c4nc(N)nn4-c4ccc(F)cc4F)nc2-3)cn1` gave a pIC50 of over 6.00.

Turning to `CC(C)n1ncnc1-c1nc2c(s1)CCOc1cc(C3CN(CC(N)=O)C3)ccc1-2`, the pIC50 was over 6.00.

Compound `CO[C@@H]1CCCN(C(=O)c2nc3c(s2)CCOc2cc(-c4cn[nH]c4)ccc2-3)C1` had a pIC50 of over 6.00.

`O=C(O)Cn1cc(-c2ccc3c(c2)OCCc2sc(-c4ncnn4CC(F)(F)F)nc2-3)cn1` showed a pIC50 of over 6.00.

`CN(CCO)C(=O)c1ccc(Cl)c(N(C)C(=O)c2cc3c(s2)-c2ccc(C(=O)NCCS(C)(=O)=O)cc2OCC3)c1`: the pIC50 was over 6.00.

Compound `CS(=O)(=O)c1cccc(-c2ccc3c(c2)OCCc2sc(-c4ncnn4CC(F)(F)F)nc2-3)c1` showed a pIC50 of over 6.00.

Take `C[C@@H]1CN(c2ccc3c(n2)-c2sc(-c4ncnn4-c4ccc(F)cc4F)cc2CCO3)C[C@H](C)N1C(=O)C(F)(F)F`: the negative-log IC50 (pIC50) was over 6.00.

Take `NC(=O)c1cnc2c(c1)OCCc1cc(-c3ccc[nH]c3=O)sc1-2`: the pIC50 was over 6.00.

Regarding `CN(CCO)c1ccc2c(n1)-c1sc(-c3ncnn3-c3ccc(F)cc3F)cc1CCO2`, the pIC50 was over 6.00.

Compound `CC(C)n1ncnc1-c1nc2c(s1)CCOc1cc(-c3cn(CCO)cn3)ccc1-2` had a pIC50 of over 6.00.

Compound `CC(C)Oc1ncccc1-c1ccc2c(c1)-c1nc(-c3ncnn3C(C)C)sc1CCO2` showed a pIC50 of over 6.00.

For the compound `CC(C)n1ncnc1-c1nc2c(s1)CCOc1ccc(C(O)C(F)(F)F)cc1-2` (configuration not stated), the pIC50 was over 6.00.

`CC(C)N(CCO)C(=O)c1nc2c(s1)CCOc1ccc(-c3cnn(CCO)c3)cc1-2` had a pIC50 of over 6.00.

In turn, `Fc1ccc(-n2ncnc2-c2cc3c(s2)-c2nc(N4CC5CC4CN5)ccc2OCC3)c(F)c1` (configuration not stated) gave a pIC50 of over 6.00.

In turn, `CN(C(=O)c1cc2c(s1)-c1ccc(C(=O)NCCS(C)(=O)=O)cc1OCC2)c1cc(C(=O)N2CCNCC2)ccc1Cl` gave a negative logarithm of the IC50 (pIC50) of over 6.00.

Compound `COc1ccc(CNc2ccc3c(n2)-c2sc(-c4ncnn4-c4ccc(F)cc4F)cc2CCO3)cc1` showed a pIC50 of over 6.00.

For `CC(=O)N1CCN(C(=O)c2nc3c(s2)CCOc2cc(-c4cn[nH]c4)ccc2-3)CC1`, the pIC50 is over 6.00.

Turning to `CC(C)n1ncnc1-c1nc2c(s1)CCOc1cc(C3CN(C(=O)C4(N)CC4)C3)ccc1-2`, the pIC50 was over 6.00.

The compound `CC(C)n1ncnc1-c1nc2c(s1)CCOc1cc(-c3cnn(C(C)(C)C(=O)NC4CN(C)C4)c3)ccc1-2` showed a pIC50 of over 6.00.

In the case of `CC(C)n1cnnc1-c1nc2c(s1)CCOc1cc(CNCCO)ccc1-2`, the pIC50 was over 6.00.

In turn, `CC(C)n1ncnc1-c1nc2c(s1)CCOc1ccc(-c3ccn(C)c(=O)c3)cc1-2` showed a pIC50 of over 6.00.

The compound `Fc1ccc(-n2ncnc2-c2cc3c(s2)-c2nc(N4CCCNCC4)ccc2OCC3)c(F)c1` had a pIC50 of over 6.00.

`CC(O)CCc1ccc2c(n1)-c1sc(-c3ncnn3-c3ccc(F)cc3F)cc1CCO2` (configuration not stated) gave a pIC50 of over 6.00.

As for `COCCN1CCN(C(=O)c2nc3c(s2)CCOc2cc(-c4cn[nH]c4)ccc2-3)CC1`, the pIC50 is over 6.00.

Turning to `CS(=O)(=O)N1CCN(c2ccc3c(n2)-c2sc(-c4ncnn4-c4ccc(F)cc4F)cc2CCO3)CC1`, the pIC50 is over 6.00.

As for `CC(C)n1nc(N)nc1-c1nc2c(s1)CCOc1cc(C(=O)NC3CN(C)C3)ccc1-2`, the pIC50 was over 6.00.

The compound `CNC(=O)c1ccc2c(c1)OCCc1cc(C(=O)N(C)c3cc(C(=O)NCCO)ccc3Cl)sc1-2` had a pIC50 of over 6.00.

As to `COCCNc1ccc2c(n1)-c1sc(-c3ncnn3-c3ccc(F)cc3F)cc1CCO2`, the pIC50 is over 6.00.

The compound `N#CCCN(C(=O)c1nc2c(s1)CCOc1cc(-c3cn[nH]c3)ccc1-2)C1CCCC1` showed a pIC50 of over 6.00.

On to `FC(F)(F)Cn1ncnc1-c1nc2c(s1)CCOc1cc(-c3ccc(NCCN4CCOCC4)nc3)ccc1-2`, for which the pIC50 is over 6.00.

In turn, `CCN(CC)[C@@H]1CCN(C(=O)c2nc3c(s2)CCOc2cc(-c4cn[nH]c4)ccc2-3)C1` had a pIC50 of over 6.00.

Take `O=C(O)c1cccc(-c2ccc3c(c2)OCCc2sc(-c4ncnn4CC(F)(F)F)nc2-3)c1`: the pIC50 is over 6.00.

`FC(F)(F)Cn1ncnc1-c1nc2c(s1)CCOc1ccc(-c3cnn(CCN4CCOCC4)c3)cc1-2`: the pIC50 is over 6.00.

The compound `CC(C)n1ncnc1-c1nc2c(s1)CCOc1ccc(C3CCN(CC(N)=O)CC3)cc1-2` showed a pIC50 of over 6.00.

In turn, `CC(=O)N1CC(n2ccnc2-c2nc3c(s2)CCOc2cc(-c4cnn(CC(C)(C)O)c4)ccc2-3)C1` had a pIC50 of over 6.00.

The compound `CC(C)(O)Cn1cc(-c2ccc3c(c2)OCCc2sc(N4C(=O)OCC4(C)C)nc2-3)cn1` had a pIC50 of over 6.00.

The compound `CC(C)(O)CCc1ccc2c(n1)-c1sc(-c3ncnn3-c3ccc(F)cc3F)cc1CCO2` gave a pIC50 of over 6.00.

As for `CC(C)n1ncnc1-c1nc2c(s1)CCOc1cc(C3CN(CC(F)(F)F)C3)ccc1-2`, the pIC50 was over 6.00.

The compound `C[C@@H]1CCCN1C(=O)c1nc2c(s1)CCOc1cc(-c3cn[nH]c3)ccc1-2` showed a pIC50 of over 6.00.

`OCCn1cc(-c2ccc3c(c2)OCCc2sc(-c4ncnn4CCN4CCOCC4)nc2-3)cn1` had a pIC50 of over 6.00.

In turn, `OCCCCc1ccc2c(n1)-c1sc(-c3ncnn3-c3ccc(F)cc3F)cc1CCO2` had a pIC50 of over 6.00.

In turn, `Cc1cc(-c2ccc3c(n2)-c2sc(-c4ncnn4-c4ccc(F)cc4F)cc2CCO3)cnc1N1CCOCC1` showed a pIC50 of over 6.00.

As to `CC(C)N1CC[C@H](CN(C)C(=O)c2nc3c(s2)CCOc2cc(-c4cn[nH]c4)ccc2-3)C1`, the pIC50 is over 6.00.

On to `CC(C)(C(N)=O)n1cc(-c2ccc3c(c2)OCCc2sc(-c4ncnn4CC(F)(F)F)nc2-3)cn1`, for which the pIC50 was over 6.00.

Compound `CC(C)N(CCO)C(=O)c1nc2c(s1)CCOc1cc(-c3cnn(C)c3)ccc1-2` had a pIC50 of over 6.00.

Turning to `CNS(=O)(=O)CCN1CC(c2ccc3c(c2)OCCc2sc(-c4ncnn4C(C)C)nc2-3)C1`, the pIC50 was over 6.00.

In turn, `CC(C)n1nc(N)nc1-c1nc2c(s1)CCOc1cc(-c3cnn(CC4(C)COC4)c3)ccc1-2` gave a pIC50 of over 6.00.

`CC(C)n1ncnc1-c1nc2c(s1)CCOc1ccc(-c3cccn(C(C)C)c3=O)cc1-2`: the pIC50 was over 6.00.

Regarding `CN1CCN(C(=O)c2nc3c(s2)CCOc2cc(-c4cn[nH]c4)ccc2-3)CC1`, the pIC50 was over 6.00.

`Cc1nc(-c2nc3c(s2)CCOc2cc([C@@H]4CCCNC4)ccc2-3)n(C(C)C)n1` showed a pIC50 of over 6.00.

For the compound `COc1ccccc1C1CCN(C(=O)c2nc3c(s2)CCOc2cc(-c4cn[nH]c4)ccc2-3)CC1`, the pIC50 is over 6.00.

For the compound `CC(C)n1ncnc1-c1nc2c(s1)CCOc1cc(C3CN(Cc4ncco4)C3)ccc1-2`, the pIC50 was over 6.00.

Take `CC1(C)C(=O)N(CCN)C(=O)N1c1nc2c(s1)CCOc1ccccc1-2`: the pIC50 is over 6.00.
